We go through 21 compounds from patent US12403137B2, “Compounds and methods of use” (Tango Therapeutics, Inc., priority 2019, dated 2025).

Broadly, the IC50 is the concentration at which inhibition is half-maximal.

Assay [1] deals with HAP1 MTAP-deleted cell line. The assay is described as follows: SDMA in-cell western assay, HAP1 MTAP-deleted. Particulars: for IC50: Homo sapiens, HAP1 MTAP-deleted (MTAP-null) cell line; for MTAP Intact/Deleted Ratio: IC50 ratio HAP1 MTAP-intact / HAP1 MTAP-deleted, >=3 fold considered MTAP-selective. The format is cell-based. As for the experimental part: (§1) Table 1 also indicates IC50 values in an MTAP-isogenic cell line pair for exemplary compounds in an SDMA in-cell western assay (columns 7-8). HAP1 MTAP-intact is a cell line in which endogenous levels of MTAP are expressed, and HAP1 MTAP-deleted is an MTAP-null cell line. For Table 1, “a*” and “aa*” indicates an IC50 of <1 μM, “b*” and “bb*” indicates an IC50 equal to or greater than 1 μM but less than 10 μM, and “c*” and “cc*” indicates an IC50 of greater than or equal to 10 μM in the HAP1 MTAP-intact and the HAP1 MTAP-deleted assays, respectively. In column 9, “A*” indicates an IC50 ratio greater than or equal to 10 fold between the IC50 in the HAP1 MTAP-intact cell line and the HAP1 MTAP-deleted cell line; “B*” indicates an IC50 ratio greater than or equal to 3 fold but lower than 10 fold between the IC50 in the HAP1 MTAP-intact cell line and the HAP1 MTAP-deleted cell line; “C*” indicates an IC50 ratio of less than 3 fold between the IC50 in the HAP1 MTAP-intact cell line and the HAP1 MTAP-deleted cell line. Compounds with a ratio in the SDMA in-cell western assay of equal to or greater than 3 fold are considered MTAP-selective.

The test system of assay [2] is HAP1 MTAP-intact cell line. The assay can be described thus: SDMA in-cell western assay, HAP1 MTAP-intact. The format is cell-based. The conditions noted are these: Homo sapiens. On the procedure: as §1
The target of assay [3] is T1, PRMT5 (Homo sapiens, UniProt O14744).
T1 construct: purchased Viva (custom protein)
T1 sequence (O14744 whole entry): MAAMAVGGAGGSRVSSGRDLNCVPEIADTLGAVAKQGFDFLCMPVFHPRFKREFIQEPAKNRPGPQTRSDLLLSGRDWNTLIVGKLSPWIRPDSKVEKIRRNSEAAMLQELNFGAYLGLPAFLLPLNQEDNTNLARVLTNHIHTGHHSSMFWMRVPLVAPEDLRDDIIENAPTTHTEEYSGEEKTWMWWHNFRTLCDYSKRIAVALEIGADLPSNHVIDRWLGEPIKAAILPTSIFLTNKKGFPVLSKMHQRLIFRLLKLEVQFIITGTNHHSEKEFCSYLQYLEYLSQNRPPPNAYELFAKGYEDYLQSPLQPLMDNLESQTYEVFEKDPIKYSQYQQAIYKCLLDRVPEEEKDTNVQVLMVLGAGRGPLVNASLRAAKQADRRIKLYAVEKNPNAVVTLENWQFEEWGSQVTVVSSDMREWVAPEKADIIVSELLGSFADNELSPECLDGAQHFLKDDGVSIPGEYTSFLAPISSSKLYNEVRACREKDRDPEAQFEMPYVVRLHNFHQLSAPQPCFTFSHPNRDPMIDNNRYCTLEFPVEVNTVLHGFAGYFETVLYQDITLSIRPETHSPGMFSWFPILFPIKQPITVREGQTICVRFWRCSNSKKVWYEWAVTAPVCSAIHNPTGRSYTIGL
T1 sequence (Q9BQA1 whole entry partner): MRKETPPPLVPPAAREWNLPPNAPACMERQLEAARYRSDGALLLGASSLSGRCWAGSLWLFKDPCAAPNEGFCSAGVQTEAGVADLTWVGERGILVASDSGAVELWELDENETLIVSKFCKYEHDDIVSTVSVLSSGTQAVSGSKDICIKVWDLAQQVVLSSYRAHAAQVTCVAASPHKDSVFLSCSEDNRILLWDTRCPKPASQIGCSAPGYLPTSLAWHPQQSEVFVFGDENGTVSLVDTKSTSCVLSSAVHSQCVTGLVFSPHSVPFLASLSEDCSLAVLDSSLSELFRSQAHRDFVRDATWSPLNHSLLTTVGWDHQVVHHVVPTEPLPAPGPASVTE
The assay is described as follows: PRMT5 inhibition assay with MTA as cofactor. Particulars: against PRMT5 with MTA as cofactor. It is filed as biochemical. An excerpt: The Ki values can be calculated from the IC50 values as described in the Examples section. As detailed in the Examples section, for the assay performed in the presence of SAM, IC50=Ki×1.5 (Ki=IC50/1.5). For the assay performed in the presence of MTA, IC50=Ki×13.5 (Ki=IC50/13.5). Column 6 indicates the ratio between the Ki of compounds in the presence of SAM and the Ki of compounds in the presence of MTA

Assay [4] deals with T1, PRMT5. The assay is described as follows: PRMT5 inhibition assay with no cofactor. It is filed as biochemical. The conditions noted are these: against PRMT5 with no cofactor; read-out: No Co-factor IC50.

Take `Cn1nccc1COc1ccc2c(c1)CN[C@H]([C@H](O)CNC(=O)c1ccnc(NC3CCC3)c1)C2` [Compound 14, 2-(cyclobutylamino)-N—((R)-2-hydroxy-2-((S)-7-((1-methyl-1H-pyrazol-5-yl)methoxy)-1,2,3,4-tetrahydroisoquinolin-3-yl)ethyl)isonicotinamide]: the IC50 is less than 1000 nM in assay [1] and not below 10000 nM in assay [2].

As to `CC(=O)N1CC(Nc2cc(C(=O)NCC[C@H]3Cc4ccc(OCc5ocnc5C)cc4CN3)nc(N3CCCCC3)n2)C1` (single isomer, unassigned) [83**], the IC50 is less than 50 nM in assay [3] and 50 to 500 nM in assay [4].

As for `CC(=O)N1CCC(Nc2cc(C(=O)NC[C@@H](O)[C@@H]3Cc4ccc(OCc5ocnc5C)cc4CN3)cc(N3CCN(C(C)C)CC3)n2)CC1` [Compound 71], the IC50 in assay [1] was 1000 to 10000 nM; in assay [3], less than 50 nM; in assay [4] it was less than 50 nM; in assay [2] it was not below 10000 nM. Moreover, the “MTAP Intact/Deleted Ratio” value in assay [1] is “B* (an IC50 ratio greater than or equal to 3 fold but lower than 10 fold between the IC50 in the HAP1 MTAP-intact cell line and the HAP1 MTAP-deleted cell line)”.

Consider `CCOc1cc(C(=O)N2C3CCC2COC3)ccc1C(=O)NC[C@@H](O)[C@@H]1Cc2ccc(OCc3ccn[nH]3)cc2CN1` [Compound 76, 2-ethoxy-N-[(2R)-2-hydroxy-2-[(3S)-7-(1H-pyrazol-5-ylmethoxy)-1,2,3,4-tetrahydroisoquinolin-3-yl]ethyl]-4-(3-oxa-8-azabicyclo[3.2.1]octane-8-carbonyl)benzamide], for which the IC50 in assay [3] was 50 to 500 nM; in assay [4], 500 to 5000 nM; in assay [2] it was not below 10000 nM.

Regarding `O=C(NC[C@@H](O)[C@@H]1Cc2ccc(OCc3cnco3)cc2CN1)c1ccnc(NC2CCC2)c1` [Compound 19, 2-(cyclobutylamino)-N—((R)-2-hydroxy-2-((S)-7-(oxazol-5-ylmethoxy)-1,2,3,4-tetrahydroisoquinolin-3-yl)ethyl)isonicotinamide], the IC50 in assay [1] was 1000 to 10000 nM; in assay [2], not below 10000 nM.

Take `COCCN(C)c1nc(NC2CCN(C(C)=O)CC2)cc(C(=O)NC[C@@H](O)[C@@H]2Cc3ccc(OCc4ocnc4C)cc3CN2)n1` [Compound 79]: the IC50 in assay [1] was less than 1000 nM; in assay [3], less than 50 nM; in assay [4] it was 50 to 500 nM; in assay [2] it was 1000 to 10000 nM. Further, the “MTAP Intact/Deleted Ratio” value in assay [1] was “A* (an IC50 ratio greater than or equal to 10 fold between the IC50 in the HAP1 MTAP-intact cell line and the HAP1 MTAP-deleted cell line)”.

With `COCCN(C)c1cc(C(=O)NC[C@@H](O)[C@@H]2Cc3ccc(OCc4ocnc4C)cc3CN2)cc(NC2CCN(C(C)=O)CC2)n1` [Compound 66], the IC50 in assay [1] was less than 1000 nM; in assay [3], less than 50 nM; in assay [4] it was 50 to 500 nM; in assay [2], not below 10000 nM. Besides, in assay [1], the “MTAP Intact/Deleted Ratio” value is “A* (an IC50 ratio greater than or equal to 10 fold between the IC50 in the HAP1 MTAP-intact cell line and the HAP1 MTAP-deleted cell line)”.

For the compound `CC(=O)N1CC(Nc2cc(C(=O)NC[C@@H](O)[C@@H]3Cc4ccc(OCc5ocnc5C)cc4CN3)nc(N3CCC(C)CC3)n2)C1` [Compound 62, 6-[(1-acetylazetidin-3-yl)amino]-N-[(2R)-2-hydroxy-2-[(3S)-7-[(4-methyloxazol-5-yl)methoxy]-1,2,3,4-tetrahydroisoquinolin-3-yl]ethyl]-2-(4-methyl-1-piperidyl)pyrimidine-4-carboxamide], the half-maximal inhibitory concentration (IC50) in assay [1] is less than 1000 nM; in assay [2], 1000 to 10000 nM.

In the case of `CC(=O)N1CC(Nc2cc(C(=O)NCC[C@@H]3Cc4ccc(OCc5ocnc5C)cc4CN3)nc(N3CCCCC3)n2)C1` (single isomer, unassigned) [85**], the IC50 fell in the range of 50 to 500 nM in assay [3] and 500 to 5000 nM in assay [4].

For the compound `CC(=O)N1CC(Nc2cc(C(=O)NC[C@@H](O)[C@@H]3Cc4ccc(OCc5ocnc5C)cc4CN3)cc(N3CCN(C(C)C)CC3)n2)C1` [Compound 67], the concentration for half-maximal inhibition (IC50) is 1000 to 10000 nM in assay [1], less than 50 nM in assay [3], 50 to 500 nM in assay [4] and not below 10000 nM in assay [2]. The “MTAP Intact/Deleted Ratio” value in assay [1] was “C* (an IC50 ratio of less than 3 fold between the IC50 in the HAP1 MTAP-intact cell line and the HAP1 MTAP-deleted cell line)”.

Turning to `Cc1ncoc1COc1cc2c(cc1F)C[C@@H]([C@H](O)CNC(=O)c1ccnc(NC3CCC3)c1)NC2` [Compound 65, 2-(cyclobutylamino)-N-[(2R)-2-[(3S)-6-fluoro-7-[(4-methyloxazol-5-yl)methoxy]-1,2,3,4-tetrahydroisoquinolin-3-yl]-2-hydroxy-ethyl]pyridine-4-carboxamide], the IC50 in assay [1] is less than 1000 nM; in assay [3] it was less than 50 nM; in assay [4], 500 to 5000 nM; in assay [2] it was not below 10000 nM. Also, in assay [1], the “MTAP Intact/Deleted Ratio” value was “A* (an IC50 ratio greater than or equal to 10 fold between the IC50 in the HAP1 MTAP-intact cell line and the HAP1 MTAP-deleted cell line)”.

As to `Cc1ncoc1COc1ccc2c(c1)CN[C@H]([C@H](O)CNC(=O)c1cc(NC3CC4(CCC4)C3)nc(N3CCN(C(C)C)CC3)n1)C2` [Compound 86], the IC50 in assay [3] and in assay [4] was less than 50 nM throughout.

Regarding `CC(=O)N1CC(Nc2cc(C(=O)NC[C@@H](O)[C@@H]3Cc4ccc(OCc5ocnc5C)cc4CN3)nc(N3CCCCC3)n2)C1` [Compound 22, 6-((1-acetylazetidin-3-yl)amino)-N—((R)-2-hydroxy-2-((S)-7-((4-methyloxazol-5-yl)methoxy)-1,2,3,4-tetrahydroisoquinolin-3-yl)ethyl)-2-(piperidin-1-yl)pyrimidine-4-carboxamide], the IC50 was less than 1000 nM in assay [1] and 1000 to 10000 nM in assay [2].

As for `CCOc1cc(C(=O)N2C3CCC2COC3)ccc1C(=O)NC[C@@H](O)[C@@H]1Cc2ccc(OCc3ccncc3)cc2CN1` [Compound 73, 2-ethoxy-N-[(2R)-2-hydroxy-2-[(3S)-7-(4-pyridylmethoxy)-1,2,3,4-tetrahydroisoquinolin-3-yl]ethyl]-4-(3-oxa-8-azabicyclo[3.2.1]octane-8-carbonyl)benzamide], the IC50 in assay [1] was 1000 to 10000 nM; in assay [3], 50 to 500 nM; in assay [4] it was not below 5000 nM.

In the case of `COCCN(C)c1nc(NC2CC3(CCC3)C2)cc(C(=O)NC[C@@H](O)[C@@H]2Cc3ccc(OCc4ocnc4C)cc3CN2)n1` [Compound 80], the IC50 in assay [1] was less than 1000 nM; in assay [2], 1000 to 10000 nM.

On to `COc1ccc(C(=O)N2CCc3cc(C(=O)NC[C@@H](O)[C@@H]4Cc5ccc(OCc6ccnn6C)cc5CN4)ccc3C2)cc1` [Compound 77, N-[(2R)-2-hydroxy-2-[(3S)-7-[(2-methylpyrazol-3-yl)methoxy]-1,2,3,4-tetrahydroisoquinolin-3-yl]ethyl]-2-(4-methoxybenzoyl)-3,4-dihydro-1H-isoquinoline-6-carboxamide], for which the values for the IC50 in assay [3], in assay [4] and in assay [2] were less than 50 nM, 500 to 5000 nM and 1000 to 10000 nM, respectively.

In turn, `CC(=O)N1CC(Nc2cc(C(=O)NC[C@H](O)[C@@H]3Cc4ccc(OCc5ocnc5C)cc4CN3)nc(N3CCCCC3)n2)C1` [Compound 64] came in with an IC50 in assay [1] of 1000 to 10000 nM.

`CC(=O)N1CC2(CC(Nc3cc(C(=O)NC[C@@H](O)[C@@H]4Cc5ccc(OCc6ocnc6C)cc5CN4)nc(N4CCCCC4)n3)C2)C1` [Compound 48, 6-[(2-acetyl-2-azaspiro[3.3]heptan-6-yl)amino]-N-[(2R)-2-hydroxy-2-[(3S)-7-[(4-methyloxazol-5-yl)methoxy]-1,2,3,4-tetrahydroisoquinolin-3-yl]ethyl]-2-(1-piperidyl)pyrimidine-4-carboxamide]: the IC50 in assay [1] and in assay [2] was less than 1000 nM each time.

On to `Cc1ncoc1COc1ccc2c(c1)CN[C@H]([C@H](O)CNC(=O)c1cc(NC3CC4(CCC4)C3)nc(N3CCN(C(=O)C4CC4)CC3)n1)C2` [Compound 84], for which the half-maximal inhibitory concentration (IC50) in assay [3] and in assay [4] was less than 50 nM in each case.

Consider `Cc1ncoc1COc1ccc2c(c1)CN[C@H]([C@H](O)CNC(=O)c1ccnc(NC3CCC3)c1)C2` [Compound 15, 2-(cyclobutylamino)-N—((R)-2-hydroxy-2-((S)-7-((4-methyloxazol-5-yl)methoxy)-1,2,3,4-tetrahydroisoquinolin-3-yl)ethyl)isonicotinamide], for which the figures for the IC50 in assay [1] and in assay [2] were less than 1000 nM and not below 10000 nM, respectively.

`COc1ccc(C(=O)N2CCc3cc(C(=O)NC[C@@H](O)[C@@H]4Cc5ccc(OCc6cnco6)cc5CN4)ccc3C2)cc1` [Compound 74, N-[(2R)-2-hydroxy-2-[(3S)-7-(oxazol-5-ylmethoxy)-1,2,3,4-tetrahydroisoquinolin-3-yl]ethyl]-2-(4-methoxybenzoyl)-3,4-dihydro-1H-isoquinoline-6-carboxamide]: the concentration for half-maximal inhibition (IC50) is less than 1000 nM in assay [1], less than 50 nM in assay [3] and 50 to 500 nM in assay [4].
